Data reported in ChEMBL document CHEMBL1129378, “Octanol-, chloroform-, and propylene glycol dipelargonat-water partitioning of morphine-6-glucuronide and other related opiates” (J Med Chem, 1996).

Assays:
physchem [1] = test: physchem
Description: Sugar COOH pKa of compound

physchem [2] = conditions: octanol/water
Description: Partition coefficient of anion (logD)

physchem [3] = conditions: octanol/water; remark: listed apart in the source
Description: (§1) Partition coefficient of Zwitterion (logD)

physchem [4] = conditions: buffer, pH 7.4
Description: Log D of compound; LogD at pH 7.4

physchem [5] = test: physchem; remark: listed apart in the source
[6] = octanol/water
Description: Partition coefficient of cation (logD)

physchem [7] = test: physchem; remark: listed apart in the source
[8] = Phenolic pKa of compound with […] NaCl; format: physicochemical
[9] = octanol/water; remark: listed apart in the source
Description: as §1

[10] = Partition coefficient (logD) of Zwitterion (chloroform/water); format: physicochemical
[11] = Partition coefficient (logD) of anion (chloroform/water); format: physicochemical
[12] = Log D of compound (Chloroform water medium); format: physicochemical; conditions: buffer
[13] = Partition coefficient (logP) (chloroform); format: physicochemical

Compound | logD (physchem [2]) | logD (physchem [3]) | logD (physchem [4]) | pKa (physchem [5]) | logD [6] | other results
Cc1cc(=O)oc2cc(O[C@@H]3O[C@H](C(=O)O)[C@@H](O)[C@H](O)[C@H]3O)ccc12 | -1.3 | -0.39 | -1.32 | – | – | pKa (physchem [1]): 2.82
CC(=O)O[C@H]1C=C[C@H]2[C@H]3Cc4ccc(O)c5c4[C@@]2(CCN3C)[C@H]1O5 | -0.42 | 1.55 | 0.61 | 8.19 | < -2 | pKa (physchem [7]): 9.55
CO[C@]12CC[C@@]3(C[C@@H]1[C@](C)(O)C(C)(C)C)[C@H]1Cc4ccc(O)c5c4[C@@]3(CCN1CC1CC1)[C@H]2O5 [BUPRENORPHINE] | 3.24 | – | 3.93 | 8.31 | 0.45 | pKa [8]: 9.62
COc1ccc2c3c1O[C@H]1[C@@H](O)C=C[C@H]4[C@@H](C2)N(C)CC[C@@]341 [CODEINE] | – | – | 0.22 | – | < -2 | logD [9]: 1.19
CC(=O)Oc1ccc2c3c1O[C@H]1[C@@H](OC(C)=O)C=C[C@H]4[C@@H](C2)N(C)CC[C@@]341 [DIACETYLMORPHINE] | – | 1.58 | 0.85 | – | -0.94 | –
CN1CC[C@]23c4c5ccc(O[C@@H]6O[C@H](C(=O)O)[C@@H](O)[C@H](O)[C@H]6O)c4O[C@H]2[C@@H](O)C=C[C@H]3[C@H]1C5 [MORPHINE 3-GLUCURONIDE] | -1.45 | -1.1 | -1.12 | – | < -2 | logD [10]: -1.12; logD [11]: < -2; logD [12]: -1.18; logP [13]: -1.12
CN1CC[C@]23c4c5ccc(O)c4O[C@H]2[C@@H](O[C@@H]2O[C@H](C(=O)O)[C@@H](O)[C@H](O)[C@H]2O)C=C[C@H]3[C@H]1C5 [MORPHINE GLUCURONIDE] | – | – | – | – | – | pKa (physchem [7]): 9.42
COc1ccc2c3c1O[C@H]1[C@@H](O)C=C[C@H]4[C@@H](C2)NCC[C@@]341 [NORCODEINE] | < -2 | 0.69 | -1.26 | 9.23 | < -2 | –
